In article PMC10778976, “BAY-3827 and SBI-0206965: Potent AMPK Inhibitors That Paradoxically Increase Thr172 Phosphorylation” (International Journal of Molecular Sciences, 2023):
“And” between values parts separate entries of the source, which are not always exact repeats. Equal entries are not always repeated. Where two headings read alike, the source gives them in different places.

What was measured:
[1] = test system: acetyl-CoA carboxylase (ACC, Ser80) phosphorylation in U2OS cells; assay: ACC phosphorylation in U2OS cells (Western blot); assay type: cell-based, human; details: 30 min inhibitor then 30 min MK-8722 (300 nM), read-out: IC50, inhibition of MK-8722-stimulated ACC phosphorylation
Procedure: (§1) T-Rex U2OS cells carrying a Flp Recombinase Target (FRT) site were generated as described previously and grown in Dulbecco’s Modified Eagle’s Medium (DMEM) supplemented with 10% (v/v) FBS and 1% (v/v) penicillin/streptomycin.
(§2) Cells were lysed rapidly in situ on culture plates using ice-cold lysis medium containing phosphatase inhibitors, as described previously.
(§3) SDS-PAGE was performed using precast NuPAGE Tris-acetate 3–8% gradient polyacrylamide gels in Tris-acetate running buffer when analyzing ACC, GBF1, or Raptor, or NuPAGE Bis-Tris 4–12% gradient polyacrylamide gels in the MOPS buffer system (ThermoFisher Scientific, Waltham, MA, USA) for other proteins (unless stated otherwise). Proteins were transferred to nitrocellulose membranes using the iBlot 2 system (ThermoFisher Scientific). Membranes were enhanced if necessary using SuperSignal Western Blot Enhancer (ThermoFisher Scientific), then blocked for 1 h in Li-Cor Odyssey blocking buffer. The membranes were probed with the appropriate primary antibody ([…]) overnight at 4 °C. Detection was performed using secondary antibody or streptavidin probe (for total ACC) coupled to IR 680 or IR 800 dye, and the membranes were scanned using the LICOR Odyssey IR imager. Protein concentrations were determined by Coomassie Blue binding with bovine serum albumin as a standard. The cellular levels of AMP and ATP were determined via direct perchloric acid extraction from cells, with LC:MS used to estimate the levels of each nucleotide.

human α1β1γ1 complex = human α1β1γ1 complex (Homo sapiens, UniProt Q13131); assay: Cell-free kinase assay of bacterially expressed human α1β1γ1 complex phosphorylated on Thr172 by CaMKK2; assay type: biochemical; details: ATP 200 µM; read-out: IC50, inhibition of human α1β1γ1 complex
Excerpt: AMPK assays measured the transfer of radioactivity from labelled ATP to a peptide substrate, which was separated from unreacted ATP by binding to P81 paper. This assay was described previously, except that we used [γ-^33P]ATP rather than [γ-^32P]ATP. The peptide substrate was the AMARA peptide in all experiments other than one, which analyzed allosteric activation by AMP (Figure 2A), when, for technical reasons, the SAMS peptide was used instead. With purified preparations of AMPK, it was assayed in solution, but for assays in cell lysates (Figure 3D and Figure 4D), it was first immunoprecipitated using a mixture of anti-α1 and -α2 antibodies and assayed in resuspended immunoprecipitates. After the initial immunoprecipitation of lysate containing 80 µg of protein, the pellets were washed twice with 1 mL of high salt IP buffer (50 mM Tris-HCL, pH 7.4 at 4 °C, 1 M NaCl, 1 mM EDTA, 1 mM EGTA, 50 mM NaF, 5 mM Na pyrophosphate, 1 mM dithiothreitol, 0.1% (v/v) Triton X-100) and twice with 1 mL of low salt IP buffer (as above but only 150 mM NaCl), followed by a final wash in 1 mL of assay buffer (50 mM Na Hepes, pH7.4, 150 mM NaCl, 1 mM dithiothreitol, 0.02% (v/v) Brij-35). After each wash, the pellet was recovered via centrifugation (16,000× g, 3 min) and then resuspended. […]

[2] = test system: phosphorylation of Thr172 on AMPK-α in U2OS cells; assay: AMPK Thr172 phosphorylation in U2OS cells (Western blot); assay type: cell-based, human
Procedure: as §1, §2, §3

[3] = test system: GBF1 (Thr1337) phosphorylation in U2OS cells; assay: GBF1 phosphorylation in U2OS cells (Western blot); assay type: cell-based, human; details: 30 min inhibitor then 30 min MK-8722 (300 nM), read-out: IC50, inhibition of MK-8722-stimulated GBF1 phosphorylation
Procedure: as §1, §2, §3

U2OS cells = assay: Cellular AMP:ATP ratio via LC:MS in U2OS cells; assay type: cell-based, human
Procedure: as §1, §3

[4] = test system: native AMPK purified from rat liver; assay: Cell-free kinase assay of purified rat liver AMPK; assay type: biochemical; details: ATP 200 µM; for IC50: read-out: IC50, inhibition of rat liver AMPK complexes
Excerpt: AMPK assays measured the transfer of radioactivity from labelled ATP to a peptide substrate, which was separated from unreacted ATP by binding to P81 paper. This assay was described previously, except that we used [γ-^33P]ATP rather than [γ-^32P]ATP. The peptide substrate was the AMARA peptide in all experiments other than one, which analyzed allosteric activation by AMP (Figure 2A), when, for technical reasons, the SAMS peptide was used instead. […] After each wash, the pellet was recovered via centrifugation (16,000× g, 3 min) and then resuspended. The final resuspended pellets from each biological replicate were divided into two aliquots (40 µg lysate protein) to provide technical replicates and assayed as above.

[5] = test system: endogenous AMPK from HEK-293 cells; assay: Protection of immunoprecipitated AMPK against inactivation by PP2Cα (PPM1A); assay type: biochemical, human; details: immunoprecipitated AMPK, 10 min 30 °C; read-out: half-maximal effect on protection against inactivation by PPM1A
Procedure: AMPK was immunoprecipitated from HEK-293 cell lysate (2.5 mg of lysate protein) using a mixture of anti-α1 and -α2 antibodies. After extensive washing as in Section 4.5, aliquots equivalent to 80 µg of lysate protein were incubated in a shaking incubator at 30 °C for 10 min in Hepes buffer (50 mM Na Hepes, pH 7.4, 150 mM NaCl, 1 mM dithiothreitol, 0.02% (w/v) Brij-35) with 50 mM MgCl2 and sufficient PPM1A to yield about 80% inactivation, in the presence or absence of 200 µM AMP or the indicated concentration of BAY-3827 or SBI-0206965 (total volume 50 µL). The reaction was terminated by adding 1 mL of IP buffer (50 mM Tris/HCl, pH 7.4 at room temperature, 150 mM NaCl, 1 mM EDTA, 1 mM EGTA, 5 mM Na pyrophosphate, 50 mM NaF, 1 mM dithiothreitol, 0.1% (v/v) Triton X-100) and, after additional washing in the same buffer and a final wash into Hepes buffer, AMPK activity was determined using kinase assays as above.

AMPK in U2OS cells = assay: AMPK activity in anti-α1/-α2 immunoprecipitates from treated U2OS cells; assay type: cell-based, human
Excerpt: as §1, §2
AMPK assays measured the transfer of radioactivity from labelled ATP to a peptide substrate, which was separated from unreacted ATP by binding to P81 paper. This assay was described previously, except that we used [γ-^33P]ATP rather than [γ-^32P]ATP. The peptide substrate was the AMARA peptide in all experiments other than one, which analyzed allosteric activation by AMP (Figure 2A), when, for technical reasons, the SAMS peptide was used instead. With purified preparations of AMPK, it was assayed in solution, but for assays in cell lysates (Figure 3D and Figure 4D), it was first immunoprecipitated using a mixture of anti-α1 and -α2 antibodies and assayed in resuspended immunoprecipitates. After the initial immunoprecipitation of lysate containing 80 µg of protein, the pellets were washed twice with 1 mL of high salt IP buffer (50 mM Tris-HCL, pH 7.4 at 4 °C, 1 M NaCl, 1 mM EDTA, 1 mM EGTA, 50 mM NaF, 5 mM Na pyrophosphate, 1 mM dithiothreitol, 0.1% (v/v) Triton X-100) and twice with 1 mL of low salt IP buffer (as above but only 150 mM NaCl), followed by a final wash in 1 mL of assay buffer (50 mM Na Hepes, pH7.4, 150 mM NaCl, 1 mM dithiothreitol, 0.02% (v/v) Brij-35). After each wash, the pellet was recovered via centrifugation (16,000× g, 3 min) and then resuspended. The final resuspended pellets from each biological replicate were divided into two aliquots (40 µg lysate protein) to provide technical replicates and assayed as above.

Chain of human α1β1γ1 complex (Q13131 whole entry): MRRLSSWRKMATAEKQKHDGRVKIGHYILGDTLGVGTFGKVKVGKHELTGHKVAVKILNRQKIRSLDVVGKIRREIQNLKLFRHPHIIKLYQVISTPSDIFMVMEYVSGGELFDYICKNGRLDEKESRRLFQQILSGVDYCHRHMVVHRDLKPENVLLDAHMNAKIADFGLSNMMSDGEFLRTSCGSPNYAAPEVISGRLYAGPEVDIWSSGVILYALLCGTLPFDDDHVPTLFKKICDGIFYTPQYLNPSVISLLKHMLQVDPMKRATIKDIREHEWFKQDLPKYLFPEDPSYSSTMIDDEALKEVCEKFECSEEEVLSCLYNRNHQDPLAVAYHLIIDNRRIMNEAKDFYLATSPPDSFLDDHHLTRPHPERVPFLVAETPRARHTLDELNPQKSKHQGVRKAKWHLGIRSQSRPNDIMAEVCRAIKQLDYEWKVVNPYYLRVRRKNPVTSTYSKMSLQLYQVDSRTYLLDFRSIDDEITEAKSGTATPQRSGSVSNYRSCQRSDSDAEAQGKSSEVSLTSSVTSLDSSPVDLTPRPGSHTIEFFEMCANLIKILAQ
Chain of human α1β1γ1 complex (P54619 whole entry, further chain): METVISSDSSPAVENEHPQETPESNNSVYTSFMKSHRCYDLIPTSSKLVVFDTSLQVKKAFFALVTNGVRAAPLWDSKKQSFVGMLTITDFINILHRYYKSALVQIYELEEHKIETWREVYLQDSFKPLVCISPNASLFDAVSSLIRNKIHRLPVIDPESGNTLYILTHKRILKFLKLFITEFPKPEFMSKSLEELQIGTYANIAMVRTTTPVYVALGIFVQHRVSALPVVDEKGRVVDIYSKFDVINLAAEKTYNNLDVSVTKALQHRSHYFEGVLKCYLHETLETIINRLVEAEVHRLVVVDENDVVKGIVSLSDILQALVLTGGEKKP
Chain of human α1β1γ1 complex (Q9Y478 2-270, further chain): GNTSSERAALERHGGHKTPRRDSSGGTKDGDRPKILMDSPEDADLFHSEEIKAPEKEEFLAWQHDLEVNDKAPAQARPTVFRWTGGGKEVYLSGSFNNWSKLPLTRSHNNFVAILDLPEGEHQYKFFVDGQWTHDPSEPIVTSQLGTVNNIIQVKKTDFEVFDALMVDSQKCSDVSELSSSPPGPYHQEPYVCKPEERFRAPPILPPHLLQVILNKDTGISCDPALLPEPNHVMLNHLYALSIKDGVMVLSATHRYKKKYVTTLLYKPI

IC50 ([1]; Homo sapiens, U2OS, 0.5 h)	EC50 ([2]; Homo sapiens, read-out: EC50, half-maximal increase of Thr172 phosphorylation)	IC50 ([3]; Homo sapiens, 0.5 h)	EC50 (AMPK in U2OS cells; Homo sapiens, U2OS cells treated with inhibitor and MK-8722, read-out: EC50, activation of AMPK activity in immunoprecipitates)	Compound	IC50 [1]	IC50 (human α1β1γ1 complex)	increase of Thr172 phosphorylation, maximal effect at low concentrations ([2]; 3–30 µM)	increase of Thr172 phosphorylation at high concentrations ([2]; 100–300 µM, not saturated)	IC50 [3]	increase in cellular AMP:ATP ratio (U2OS cells; 300 µM, 1 h incubation)	IC50 [4]	EC50 [5]	effect on AMPK activity in immunoprecipitates (AMPK in U2OS cells; U2OS cells, MK-8722 and increasing concentrations of inhibitor)	maximum increase of Thr172 phosphorylation ([2]; pThr172:total AMPK relative to control)	effect on cellular AMP:ATP ratios (U2OS cells; all concentrations used)	fold more potent than SBI-0206965 against purified rat liver AMPK [4]	Activation of AMPK activity in immunoprecipitates (AMPK in U2OS cells; U2OS cells treated with inhibitor and MK-8722)
–	–	–	–	CNC(=O)c1ccccc1Oc1nc(Nc2cc(OC)c(OC)c(OC)c2)ncc1Br [SBI-0206965]	42000 nM	247 nM and 250 nM	about 2 fold	4 fold	12000 nM	> 30 fold	360 nM	290 nM	increased with a similar biphasic pattern	–	–	–	–
260 nM	164 nM	55 nM	84 nM	CCc1ccccc1C(=O)Nc1n[nH]c2c(C)c(F)c(C3C(C#N)=C(C)N(C)C(C)=C3C#N)cc12 [BAY-3827]	270 nM	25 nM	–	–	–	–	17 nM	7 nM	–	9.7 fold	did not cause any change	> 20 fold	2.5 fold
